Here are results for four compounds from patent US11841369B2, “Method for improving quality of therapeutic cell through real-time glutathione measurement” (CELL2IN, INC., priority 2017, dated 2023).

The structures appear in SMILES notation.

Test [1] relates to hUC-MSCs. The test is described as follows: CFU-F assay of hUC-MSCs. The class given is cell-based, human. As to the method:
(§1) The inventors observed an effect of the material on stem cells by treating each stem cells with a material for enhancing a glutathione evaluation parameter. When hUC-MSCs were subcultured in a L-AA2G-containing medium, CFU-F, migration capacity, and an anti-inflammatory effect were observed. A CFU-F assay (n=3) was performed by treating hUC-MSCs with 125 or 250 μg/mL of AA2G for three days. As shown in FIGS. 16A and 16B, it was confirmed that, when AA2G was treated, CFU-F increased. In addition, as hUC-MSCs were treated with 125 or 250 μg/mL of AA2G for three days, PDGF-AA-induced migration capacity (n=3) was analyzed. As shown in FIGS. 17A and 17B, it was confirmed that the migration capacity was increased by AA2G treatment. In addition, the reduction in T cell proliferation, a reduction in T cell differentiation, and the promotion of Treg cell differentiation were observed by treating hUC-MSCs with 125 or 250 μg/mL of AA2G for three days. […] Meanwhile, hUC-MSCs were cultured with a glutathione precursor such as γ-glutamyl cysteine (GGC, 0.1, 0.25, and 0.5 mM). A CFU-F assay (n=3) was performed by treating hUC-MSCs with each concentration of GGC for 2 hours. […] In addition, SDF1α and PDGF-AA-induced migration capacities (n=3) were analyzed for hUC-MSCs without treatment with GGC, and SDF1α- and PDGF-AA-induced migration abilities (n=3) were analyzed by treating hUC-MSCs with the increasing concentrations of GGC. STI571 was used as a PDGFR kinase inhibitor. As shown in FIGS. 20A to 20C, it was confirmed that, according to an increase in GGC treatment concentration, SDF1α- and PDGF-AA-induced migration capacities were enhanced. A CFU-F assay (n=3) was performed by treating hUC-MSCs with 0.2, 1, 2, and 4 μM ferrostatin-1 and 0.1, 0.5, 1, and 2 μM liproxstatin-1 for 24 hours.

Test [2] concerns hUC-MSCs. The test can be described thus: SDF1α- and PDGF-AA-induced migration capacity of hUC-MSCs. The class given is cell-based, human. To be noted: increasing GGC concentration (0.1, 0.25 mM). On the procedure:
as §1, with “enhanced.” for “enhanced. A CFU-F assay (n=3) was performed by treating hUC-MSCs with 0.2, 1, 2, and 4 μM ferrostatin-1 and 0.1, 0.5, 1, and 2 μM liproxstatin-1 for 24 hours.”

The test system of test [3] is T cells. The test is described as follows: Anti-inflammatory effect of treated hUC-MSCs: T cell proliferation, T cell differentiation, Treg cell differentiation. The format is cell-based. To be noted: for T cell differentiation capacity / T cell proliferation ability / Treg cell differentiation: hUC-MSCs treated with 1 μM ferrostatin-1 24 h, 0.2 mM GGC 2 h or 2 mM GSH-EE 2 h. As to the method:
The inventors observed an effect of the material on stem cells by treating each stem cells with a material for enhancing a glutathione evaluation parameter. When hUC-MSCs were subcultured in a L-AA2G-containing medium, CFU-F, migration capacity, and an anti-inflammatory effect were observed. A CFU-F assay (n=3) was performed by treating hUC-MSCs with 125 or 250 μg/mL of AA2G for three days. As shown in FIGS. 16A and 16B, it was confirmed that, when AA2G was treated, CFU-F increased. In addition, as hUC-MSCs were treated with 125 or 250 μg/mL of AA2G for three days, PDGF-AA-induced migration capacity (n=3) was analyzed. As shown in FIGS. 17A and 17B, it was confirmed that the migration capacity was increased by AA2G treatment. In addition, the reduction in T cell proliferation, a reduction in T cell differentiation, and the promotion of Treg cell differentiation were observed by treating hUC-MSCs with 125 or 250 μg/mL of AA2G for three days.
In addition, hUC-MSCs were cultured with ferrostatin-1 (0.2, 1, 2 and 4 μM) and liproxstatin-1 (0.1, 0.5, 1 and 2 μM), which control a glutathione level in cells by inhibiting lipid oxidation. […] Meanwhile, the hUC-MSCs were treated with 1 μM ferrostatin-1 for 24 hours, 0.2 mM GGC for 2 hours, and 2 mM GSH-EE for 2 hours. As a result, the reduction in T cell proliferation ability and the reduction in T cell differentiation capacity were observed, and promotion of Treg cell differentiation was observed.

Test [4] deals with hUC-MSCs. The test can be described thus: Oxidative stress resistance capacity (ORC) analysis with RSL3. The class given is cell-based, human. To be noted: hUC-MSCs, 0, 2.5, 5 or 10 μM liproxstatin-1 with 0, 0.5 or 1 μM RSL3; concentration-dependent. As to the method: In addition, GH is calculated as the coefficient of variation or robust coefficient of variation of cellular FR. GRC refers to a value obtained by real-time monitoring of FR after living cells are treated with an oxidizing agent, as calculated by dividing a value obtained by subtracting AUC of a group treated with 0.1-100 mM N-ethylmaleimide (NEM) from FR AUC of an oxidizing agent (diamide, H2O2, etc.)-treated group by a value obtained by subtracting the AUC of NEM-treated group from AUC of the untreated control, and multiplying the resulting value by 100. The FR of the NEM-treated group is a value for increasing the sensitivity of a GRC value by treating it as the blank value of the FR of the cells of interest. […] To remove the MitoFreSH-Tracer from the medium before measurement, the medium was exchanged with fresh 10 mM HEPES-containing HBSS, and a fluorescence image was obtained using a confocal imaging system, Operetta. By comparing GSH levels quantified from control cells not treated with RSL3 or control cells before treated with RSL3, the distribution of GSH expression-changed cells was calculated. Based on the point where the distribution histogram is divided into two peaks, the cells were divided into GSH^High cells (right peak) and GSH^Low cells (left peak), and then a ratio of corresponding cells was expressed as a percentage (%). […]

Test [5] has as its system hES-MSCs. The test is described as follows: CFU-F of FreSH-Tracer-sorted hES-MSCs. The class given is cell-based, human. On the procedure: Twelve hours after hES-MSCs were seeded in […] tissue culture media at a density of 3×10^6 cells/mL, the cells were washed two times with 30 mL of PBS, and labeled with an EGM-2 MV culture solution containing 2 μM FreSH for 2 hours. After the two hours, the cells were washed with 2 μM FreSH-containing PBS twice and treated with a TrypsinLE (Invitrogen) solution to detach the cells, and then trypsin was inactivated with a fresh EGM-2 MV medium containing 2 μM FreSH. Afterward, the cells were centrifuged at 4° C. and 2000 rpm for 20 minutes, and resuspended in a fresh EGM-2 MV medium containing 2 μM FreSH to have a density of 5×10^7 cells/mL. The suspension was diluted 1/5 with PBS containing 2 μM FreSH immediately before loading for FACS (diluted by approximately 1 mL at a time to maintain a temperature of 4° C.).
Afterward, under the following conditions, FACS Instruction (BD ARIAIII, laser at wavelengths of 405 (for measuring F510) and 488 (for measuring F580), nozzle size: 100 μm, 2,000-3,000 events/sec), FACS analysis was performed by gating the cells corresponding to the upper 3.9-35% and the lower 3.9-35% of total cells according to the F510/F580 ratio. […]
Main factors for determining the therapeutic efficacy of hBM-MSCs, namely a colony forming unit-fibroblast (CFU-F) and a graft survival rate, were evaluated in cell culture models. […]

Test [6] has as its system hES-MSCs. The test is described as follows: PDGF-AA-induced cell migration of unsorted hES-MSCs. The format is cell-based, human. To be noted: hES-MSCs not sorted by FreSH-Tracer. On the procedure: Main factors for determining the therapeutic efficacy of hBM-MSCs, namely a colony forming unit-fibroblast (CFU-F) and a graft survival rate, were evaluated in cell culture models.
In order to test whether direct control of a GSH level in stem cells leads to changes in cell functions, hES-MSCs sorted by FreSH-Tracer were treated with buthionine sulfoximine (BSO; glutathione synthesis inhibitor) and glutathione ethyl ester (GSH-EE). When GSH was decreased in cells by treating GSH^High cells with BSO (80 μM, 24 h), it was confirmed that CFU-F increased, and on the other hand, when GSH was increased by treating GSH^Low cells with GSH-EE (1 mM, 2 h), it was confirmed that CFU-F decreased (FIG. 13A). In addition, it was confirmed that, when hES-MSCs which were not sorted by FreSH-Tracer were treated with BSO or GSH-EE, PDGF-AA-induced cell migration capacity was decreased or increased, respectively (FIG. 13B).

Consider `N[C@@H](CCC(=O)N[C@@H](CS)C(=O)O)C(=O)O` [GGC, γ-glutamyl cysteine], for which, in test [1] (GGC 0.1, 0.25 and 0.5 mM, 2 hours), the CFU-F result is listed as “increased”. In addition, in test [2], the PDGF-AA-induced migration capacity result is on record as “enhanced” and the SDF1α-induced migration capacity entry is “enhanced”. Further, in test [3], the “T cell differentiation capacity” value is reported as “reduction”, the “T cell proliferation ability” value is recorded as “reduction” and the Treg cell differentiation result was “promotion”. In addition, the anti-inflammatory effect result in test [3] (hUC-MSCs with GGC treatment (FIGS. 27, 28A to 28C)) is “no change”.
Regarding `Clc1cccc(CN=C2Nc3ccccc3NC23CCNCC3)c1` [liproxstatin-1], the “ratio of the GSH^High cells (ORC)” value in test [4] is given as “increased”. For the same compound, the CFU-F entry in test [1] (ferrostatin-1 0.2, 1, 2, 4 μM or liproxstatin-1 0.1, 0.5, 1, 2 μM, 24 hours) was “improved”. Also, the “anti-inflammatory effect of the hUC-MSCs” value in test [3] (ferrostatin-1 or liproxstatin-1 treatment (FIGS. 27, 28A to 28C)) was “did not alter”.
`CCOC(=O)CNC(=O)[C@H](CS)NC(=O)CC[C@H](N)C(=O)O` [GSH-EE, glutathione ethyl ester]: in test [5] (GSH^Low hES-MSCs, GSH-EE 1 mM, 2 h), the CFU-F entry is listed as “decreased”. Further, the “PDGF-AA-induced cell migration capacity” value in test [6] is given as “increased”. For the same compound, in test [3], the “T cell differentiation capacity” value is given as “reduction”, the “T cell proliferation ability” value is given as “reduction” and the Treg cell differentiation entry is on record as “promotion”.
On to `CCCCS(=N)(=O)CCC(N)C(=O)O` (centres unmarked) [BSO, buthionine sulfoximine], for which the CFU-F entry in test [5] (GSH^High hES-MSCs, BSO 80 μM, 24 h) was “increased”. Further, the “PDGF-AA-induced cell migration capacity” value in test [6] is reported as “decreased”.
